Laboratory results published in the NIST ThermoML archive (doi:10.1016/j.jct.2018.12.018).
Values joined by “and” are separate entries in the source; they are usually repeats but may differ in a detail not shown here. Equal entries are not always repeated.

Conditions: Liquid; for speed of sound: Frequency=3 MHz, Single path-length method; for mass density: Vibrating tube method

CC(C)O [propan-2-ol]
Conditions | mass density | speed of sound [m/s]
293.15 K, 100 kPa | 785.4 kg/m3 and 785.46 kg/m3 | 1157.5
293.15 K, 1000 kPa | 786.2 kg/m3 | –
293.15 K, 5000 kPa | 789.6 kg/m3 | –
293.15 K, 10000 kPa | 793.6 kg/m3 | –
293.15 K, 15000 kPa | 797.4 kg/m3 | –
293.15 K, 20000 kPa | 801.1 kg/m3 | –
293.15 K, 25000 kPa | 804.5 kg/m3 | –
293.15 K, 30000 kPa | 807.9 kg/m3 | –
293.15 K, 35000 kPa | 811.2 kg/m3 | –
293.15 K, 40000 kPa | 814.2 kg/m3 | –
293.15 K, 45000 kPa | 817.2 kg/m3 | –
293.15 K, 50000 kPa | 820.1 kg/m3 | –
293.15 K, 55000 kPa | 822.9 kg/m3 | –
293.15 K, 60000 kPa | 825.6 kg/m3 | –
293.15 K, 65000 kPa | 828.2 kg/m3 | –
293.15 K, 70000 kPa | 830.8 kg/m3 | –
293.15 K, 80000 kPa | 835.8 kg/m3 | –
293.15 K, 90000 kPa | 840.5 kg/m3 | –
293.15 K, 100000 kPa | 845 kg/m3 | –
293.15 K, 110000 kPa | 849.4 kg/m3 | –
293.15 K, 120000 kPa | 853.5 kg/m3 | –
293.15 K, 130000 kPa | 857.6 kg/m3 | –
293.15 K, 140000 kPa | 861.2 kg/m3 | –
298.15 K, 100 kPa | 781.27 kg/m3 and 781.4 kg/m3 | 1139.7
298.15 K, 1000 kPa | 782.1 kg/m3 | –
298.15 K, 5000 kPa | 785.6 kg/m3 | –
298.15 K, 10000 kPa | 789.8 kg/m3 | –
298.15 K, 15000 kPa | 793.7 kg/m3 | –
298.15 K, 20000 kPa | 797.3 kg/m3 | –
298.15 K, 25000 kPa | 800.9 kg/m3 | –
298.15 K, 30000 kPa | 804.3 kg/m3 | –
298.15 K, 35000 kPa | 807.7 kg/m3 | –
298.15 K, 40000 kPa | 810.8 kg/m3 | –
298.15 K, 45000 kPa | 813.8 kg/m3 | –
298.15 K, 50000 kPa | 816.7 kg/m3 | –
298.15 K, 55000 kPa | 819.7 kg/m3 | –
298.15 K, 60000 kPa | 822.5 kg/m3 | –
298.15 K, 65000 kPa | 825.2 kg/m3 | –
298.15 K, 70000 kPa | 827.6 kg/m3 | –
298.15 K, 80000 kPa | 832.8 kg/m3 | –
298.15 K, 90000 kPa | 837.5 kg/m3 | –
298.15 K, 100000 kPa | 842.3 kg/m3 | –
298.15 K, 110000 kPa | 846.4 kg/m3 | –
298.15 K, 120000 kPa | 850.8 kg/m3 | –
298.15 K, 130000 kPa | 854.8 kg/m3 | –
298.15 K, 140000 kPa | 858.7 kg/m3 | –
303.15 K, 100 kPa | 777 kg/m3 | 1122.6
313.15 K, 100 kPa | 768.21 kg/m3 and 768.2 kg/m3 | 1087.2
313.15 K, 1000 kPa | 769.1 kg/m3 | –
313.15 K, 5000 kPa | 773 kg/m3 | –
313.15 K, 10000 kPa | 777.4 kg/m3 | –
313.15 K, 15000 kPa | 781.8 kg/m3 | –
313.15 K, 20000 kPa | 785.7 kg/m3 | –
313.15 K, 25000 kPa | 789.5 kg/m3 | –
313.15 K, 30000 kPa | 793.3 kg/m3 | –
313.15 K, 35000 kPa | 796.9 kg/m3 | –
313.15 K, 40000 kPa | 800.1 kg/m3 | –
313.15 K, 45000 kPa | 803.4 kg/m3 | –
313.15 K, 50000 kPa | 806.5 kg/m3 | –
313.15 K, 55000 kPa | 809.6 kg/m3 | –
313.15 K, 60000 kPa | 812.5 kg/m3 | –
313.15 K, 65000 kPa | 815.4 kg/m3 | –
313.15 K, 70000 kPa | 818.2 kg/m3 | –
313.15 K, 80000 kPa | 823.4 kg/m3 | –
313.15 K, 90000 kPa | 828.5 kg/m3 | –
313.15 K, 100000 kPa | 833.1 kg/m3 | –
313.15 K, 110000 kPa | 837.8 kg/m3 | –
313.15 K, 120000 kPa | 842.1 kg/m3 | –
313.15 K, 130000 kPa | 846.4 kg/m3 | –
313.15 K, 140000 kPa | 850.4 kg/m3 | –
323.15 K, 100 kPa | 759.07 kg/m3 | 1051.8
333.15 K, 100 kPa | 749.42 kg/m3 and 749.4 kg/m3 | 1015.3
333.15 K, 1000 kPa | 750.5 kg/m3 | –
333.15 K, 5000 kPa | 754.9 kg/m3 | –
333.15 K, 10000 kPa | 760 kg/m3 | –
333.15 K, 15000 kPa | 764.9 kg/m3 | –
333.15 K, 20000 kPa | 769.3 kg/m3 | –
333.15 K, 25000 kPa | 773.6 kg/m3 | –
333.15 K, 30000 kPa | 777.7 kg/m3 | –
333.15 K, 35000 kPa | 781.5 kg/m3 | –
333.15 K, 40000 kPa | 785.3 kg/m3 | –
333.15 K, 45000 kPa | 788.9 kg/m3 | –
333.15 K, 50000 kPa | 792.3 kg/m3 | –
333.15 K, 55000 kPa | 795.6 kg/m3 | –
333.15 K, 60000 kPa | 798.7 kg/m3 | –
333.15 K, 65000 kPa | 801.8 kg/m3 | –
333.15 K, 70000 kPa | 804.8 kg/m3 | –
333.15 K, 80000 kPa | 810.5 kg/m3 | –
333.15 K, 90000 kPa | 815.9 kg/m3 | –
333.15 K, 100000 kPa | 820.9 kg/m3 | –
333.15 K, 110000 kPa | 825.8 kg/m3 | –
333.15 K, 120000 kPa | 830.4 kg/m3 | –
333.15 K, 130000 kPa | 834.8 kg/m3 | –
333.15 K, 140000 kPa | 839.2 kg/m3 | –
353.15 K, 1000 kPa | 729.8 kg/m3 | –
353.15 K, 5000 kPa | 735 kg/m3 | –
353.15 K, 10000 kPa | 741 kg/m3 | –
353.15 K, 15000 kPa | 746.5 kg/m3 | –
353.15 K, 20000 kPa | 751.7 kg/m3 | –
353.15 K, 25000 kPa | 756.5 kg/m3 | –
353.15 K, 30000 kPa | 761 kg/m3 | –
353.15 K, 35000 kPa | 765.4 kg/m3 | –
353.15 K, 40000 kPa | 769.3 kg/m3 | –
353.15 K, 45000 kPa | 773.3 kg/m3 | –
353.15 K, 50000 kPa | 777 kg/m3 | –
353.15 K, 55000 kPa | 780.6 kg/m3 | –
353.15 K, 60000 kPa | 784 kg/m3 | –
353.15 K, 65000 kPa | 787.4 kg/m3 | –
353.15 K, 70000 kPa | 790.6 kg/m3 | –
353.15 K, 80000 kPa | 796.7 kg/m3 | –
353.15 K, 90000 kPa | 802.6 kg/m3 | –
353.15 K, 100000 kPa | 808 kg/m3 | –
353.15 K, 110000 kPa | 813.2 kg/m3 | –
353.15 K, 120000 kPa | 818.1 kg/m3 | –
353.15 K, 130000 kPa | 822.8 kg/m3 | –
353.15 K, 140000 kPa | 827.3 kg/m3 | –
373.15 K, 1000 kPa | 706.6 kg/m3 | –
373.15 K, 5000 kPa | 712.8 kg/m3 | –
373.15 K, 10000 kPa | 719.9 kg/m3 | –
373.15 K, 15000 kPa | 726.3 kg/m3 | –
373.15 K, 20000 kPa | 732 kg/m3 | –
373.15 K, 25000 kPa | 737.7 kg/m3 | –
373.15 K, 30000 kPa | 742.9 kg/m3 | –
373.15 K, 35000 kPa | 747.8 kg/m3 | –
373.15 K, 40000 kPa | 752.2 kg/m3 | –
373.15 K, 45000 kPa | 756.6 kg/m3 | –
373.15 K, 50000 kPa | 760.7 kg/m3 | –
373.15 K, 55000 kPa | 764.7 kg/m3 | –
373.15 K, 60000 kPa | 768.6 kg/m3 | –
373.15 K, 65000 kPa | 772.1 kg/m3 | –
373.15 K, 70000 kPa | 775.6 kg/m3 | –
373.15 K, 80000 kPa | 782.3 kg/m3 | –
373.15 K, 90000 kPa | 788.5 kg/m3 | –
373.15 K, 100000 kPa | 794.4 kg/m3 | –
373.15 K, 110000 kPa | 799.9 kg/m3 | –
373.15 K, 120000 kPa | 805.3 kg/m3 | –
373.15 K, 130000 kPa | 810.2 kg/m3 | –
373.15 K, 140000 kPa | 815.1 kg/m3 | –
393.15 K, 1000 kPa | 680.4 kg/m3 | –
393.15 K, 5000 kPa | 688.2 kg/m3 | –
393.15 K, 10000 kPa | 696.7 kg/m3 | –
393.15 K, 15000 kPa | 704.4 kg/m3 | –
393.15 K, 20000 kPa | 711.4 kg/m3 | –
393.15 K, 25000 kPa | 717.6 kg/m3 | –
393.15 K, 30000 kPa | 723.5 kg/m3 | –
393.15 K, 35000 kPa | 729 kg/m3 | –
393.15 K, 40000 kPa | 734.2 kg/m3 | –
393.15 K, 45000 kPa | 739 kg/m3 | –
393.15 K, 50000 kPa | 743.5 kg/m3 | –
393.15 K, 55000 kPa | 747.9 kg/m3 | –
393.15 K, 60000 kPa | 752.1 kg/m3 | –
393.15 K, 65000 kPa | 756.1 kg/m3 | –
393.15 K, 70000 kPa | 760 kg/m3 | –
393.15 K, 80000 kPa | 767.2 kg/m3 | –
393.15 K, 90000 kPa | 773.9 kg/m3 | –
393.15 K, 100000 kPa | 780.2 kg/m3 | –
393.15 K, 110000 kPa | 786.2 kg/m3 | –
393.15 K, 120000 kPa | 791.8 kg/m3 | –
393.15 K, 130000 kPa | 797.2 kg/m3 | –
393.15 K, 140000 kPa | 802.3 kg/m3 | –
